Where two headings read alike, the source gives them in different places. Starred links: 1 amine or outer side, 2 acyl side, 3 side chain; linkers in the order of their positions; H or OH if unused. Non-standard residues stand in square brackets, D forms with d. Primed or numbered codes have the meaning given here. No end group written: not given here. K(Palm) = CCCCCCCCCCCCCCCC(=O)NCCCC[C@H](N[*:1])C(=O)[*:2]; PEG2′ = short PEG2 spacer in the linker

Data set [1] in a line: Pharmacokinetic properties in mice, hPTH(1-34) ELISA of plasma. (In an ELISA, binding on a coated surface is turned into a signal by an enzyme label.)
Method: (§1) Mice were injected IV via the tail vein or subcutaneously with ligands in vehicle (0.05% Tween 80; 10 mM citrate; 150 mM NaCl; pH 5.0) to give the intended final ligand dose (e.g. 50 nmol/kg body weight). At times immediately before (t=0) and after injection, tail vein blood was collected and analyzed for concentrations of administered peptides or blood ionized calcium (Ca^2+) measured with a RAPIDLAB 348 analyzer (SIEMENS Healthcare Diagnostic, United Kingdom).
The target in another data set is T1, PTH receptor (Homo sapiens, UniProt Q03431).
T1 construct: endogenous in cells; host or cells: SaOS2-derived SGS-72 cells (human osteoblast line stably transfected with the GloSensor cAMP reporter)
T1 sequence (Q03431 27-593): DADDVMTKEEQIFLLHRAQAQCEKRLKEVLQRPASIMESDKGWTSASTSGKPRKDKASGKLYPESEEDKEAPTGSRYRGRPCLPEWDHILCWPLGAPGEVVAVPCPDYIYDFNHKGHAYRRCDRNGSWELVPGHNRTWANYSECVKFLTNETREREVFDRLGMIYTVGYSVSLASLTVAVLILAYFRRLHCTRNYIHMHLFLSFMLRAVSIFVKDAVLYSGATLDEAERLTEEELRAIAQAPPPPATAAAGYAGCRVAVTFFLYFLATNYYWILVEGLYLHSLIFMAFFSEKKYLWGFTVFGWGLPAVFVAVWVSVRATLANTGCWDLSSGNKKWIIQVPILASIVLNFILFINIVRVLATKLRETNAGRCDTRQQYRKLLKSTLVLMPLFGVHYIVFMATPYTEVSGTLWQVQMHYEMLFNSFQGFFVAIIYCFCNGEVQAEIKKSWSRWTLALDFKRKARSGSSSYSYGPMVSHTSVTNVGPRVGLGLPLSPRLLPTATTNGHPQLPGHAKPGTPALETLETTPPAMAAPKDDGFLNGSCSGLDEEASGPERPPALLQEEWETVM
Briefly: cAMP signaling in SaOS2/glosensor (SGS-72) cells. The format is cell-based. The conditions noted are these: for Max %: maximum cAMP response relative to PTH(1-34)-2009. As to the method:
The cells are derived from the human osteoblast cell line, SaOS2 by stable transfection with a glosensor cAMP reporter.
cAMP signaling was assessed in an SaOS2-derived cell line stably expressing the luciferase-based GloSensor™ cAMP reporter (Hattersley et al., Paper presented at: Novel Signaling Mechanisms and Bone Cell Biology 2014; Binkowski et al., Methods in Molecular Biology 756:263-271, 2011). The cells were seeded into 96-well white plates and were assayed 24 to 48 hours post-confluency. Assays were performed at room temperature in CO2-independent culture media (Life Technologies, Corp., Carlsbad, CA) containing 0.1% BSA (CIDB). […] The time at which maximum luminescence (cps) observed with agonist alone, typically at 10-20 minutes after agonist addition, was used to obtain data from wells containing antagonist with or without agonist, to thus generate antagonist ligand dose-response curves. The resulting cps values were then plotted against ligand concentration using GraphPad Prism 7.0 software and a four-parameter logistics curve fitting equation, which yielded parameters of inhibitory potency (pIC50).

A further data set in a line: in vivo. The conditions noted are these: mouse, sc.
The nature of data set [2]: Blood ionized calcium in mice after injection. The class given is in vivo. The conditions noted are these: single dose 10 nmol/kg i.v. From the text:
Data are means±SEM; n=6 mice per group.
In Vivo Testing of the Polypeptides Wild-type, ca. 10-week old male C57BL/6J mice were purchased from the Charles River Laboratories (Wilmington, Massachusetts, USA). The origin and method of breeding of Col1-H223R “Jansen's” transgenic mice is described by Calvi et al. (J. Clin. Invest. 107:277-286, 2001). Mice were maintained in facilities operated by the Center for Comparative Research of the Massachusetts General Hospital, and acclimated in the facilities for seven days prior to being used for study. All experimental procedures were approved by the MGH Institutional Animal Care and Use Committee (IACUC). In each study, animals were assigned randomly to treatment groups. Where possible, power calculations established that the number of animals used per study group was sufficient to detect statistically significant differences in intended primary experimental outcomes (i.e., changes in serum Ca and Pi).

For data set [3] the following is noted: mouse, in vivo, sc.
Method: as §1
A short description of data set [4]: Hypophosphatemic effect (total inorganic phosphorus) in mice. The class given is in vivo. The note with it: as compared to PTH(1-34). An excerpt: Tail vein blood and spot urine were collected just prior to injection (t=0) and at the indicated times after injection.
Peptide doses for FIGS. 4A and 4B were 10 nmol/kg, while peptide doses were 50 nmol/kg for FIGS. 4C and 4D. T-test vs. vehicle: *p<0.05; PTH vs. Palm: +p<0.05. Mice were CD1 females, age 10 weeks. Data are means±SEM, n=6.

Method for in vivo: as §1

What is called Cmax is the peak of the concentration-time curve. As usually defined, the half-life is the time needed for the level to fall by half in the phase considered. A higher half-life goes with slow decline. For orientation: AUC means concentration integrated over time. Lower therefore signals low exposure. In the case of `CC[C@H](C)[C@H](NC(=O)[C@H](CCC(=O)O)NC(=O)[C@H](CO)NC(=O)[C@@H](NC(=O)[C@@H](N)CO)C(C)C)C(=O)N[C@@H](CCC(N)=O)C(=O)N[C@@H](CC(C)C)C(=O)N[C@@H](CCSC)C(=O)N[C@@H](Cc1cnc[nH]1)C(=O)N[C@@H](CC(N)=O)C(=O)N[C@@H](CC(C)C)C(=O)NCC(=O)N[C@@H](CCCCN)C(=O)N[C@@H](Cc1cnc[nH]1)C(=O)N[C@@H](CC(C)C)C(=O)N[C@@H](CC(N)=O)C(=O)N[C@@H](CO)C(=O)N[C@@H](CCSC)C(=O)N[C@@H](CCC(=O)O)C(=O)N[C@@H](CCCNC(=N)N)C(=O)N[C@H](C(=O)N[C@@H](CCC(=O)O)C(=O)N[C@@H](Cc1c[nH]c2ccccc12)C(=O)N[C@@H](CC(C)C)C(=O)N[C@@H](CCCNC(=N)N)C(=O)N[C@@H](CCCCN)C(=O)N[C@@H](CCCCN)C(=O)N[C@@H](CC(C)C)C(=O)N[C@@H](CCC(N)=O)C(=O)N[C@@H](CC(=O)O)C(=O)N[C@H](C(=O)N[C@@H](Cc1cnc[nH]1)C(=O)N[C@@H](CC(N)=O)C(=O)N[C@@H](Cc1ccccc1)C(N)=O)C(C)C)C(C)C` [PTH(1-34)-2009, PTH(1-34)], the Cmax in data set [1] (mouse, plasma, sc, 10 nmol/kg) was 0.65 nM. Also, the Max % on PTH receptor (means ± SEM) turned out to be 100 ± 0%. Moreover, the half-life in the data set “in vivo” is 12 min. In the data set “in vivo” (10 nmol/kg), this compound gave an area under the curve (AUC) of 0.00043 µM·h and a half-life of 12 min. Moreover, the “duration of increase of blood Ca2+ levels” value in data set [2] was no more than 4 h. This compound also came in with a total area-under-the-curve in data set [3] of 0.00043 µM·h.

As a reminder, the Tmax is the time from dosing to the highest level. The compound `CCCCCCCCCCCCCCCC(=O)NCCCC[C@H](NC(=O)[C@H](CCC(=O)O)NC(=O)[C@H](Cc1ccc(O)cc1)NC(=O)[C@H](CCC(=O)O)NC(=O)COCCOCCNC(=O)[C@H](Cc1ccccc1)NC(=O)[C@H](CC(N)=O)NC(=O)[C@H](Cc1c[nH]cn1)NC(=O)[C@@H](NC(=O)[C@H](CC(=O)O)NC(=O)[C@H](CCC(N)=O)NC(=O)[C@H](CC(C)C)NC(=O)[C@H](CCCCN)NC(=O)[C@H](CCCCN)NC(=O)[C@H](CCCNC(=N)N)NC(=O)[C@H](CC(C)C)NC(=O)[C@H](Cc1c[nH]c2ccccc12)NC(=O)[C@H](CCC(=O)O)NC(=O)[C@@H](NC(=O)[C@H](CCCNC(=N)N)NC(=O)[C@H](CCC(=O)O)NC(=O)[C@H](CCSC)NC(=O)[C@H](CO)NC(=O)[C@H](CC(N)=O)NC(=O)[C@H](CC(C)C)NC(=O)[C@H](Cc1c[nH]cn1)NC(=O)[C@H](CCCCN)NC(=O)CNC(=O)[C@H](CC(C)C)NC(=O)[C@H](CC(N)=O)NC(=O)[C@H](Cc1c[nH]cn1)NC(=O)[C@H](CCSC)NC(=O)[C@H](CC(C)C)NC(=O)[C@H](CCC(N)=O)NC(=O)[C@@H](NC(=O)[C@H](CCC(=O)O)NC(=O)[C@H](CO)NC(=O)[C@@H](NC(=O)[C@@H](N)CO)C(C)C)[C@@H](C)CC)C(C)C)C(C)C)C(=O)N[C@@H](CCC(=O)O)C(=O)N[C@@H](Cc1ccc(O)cc1)C(=O)N[C@@H](CCC(=O)O)C(N)=O` [Palm-PTH(1-34)-2027, Palm-PTH(1-34)] yielded a total area-under-the-curve in data set [1] (mice, single injection 10 mnol/kg s.c.) of 0.116 µM·h. For the same compound, in data set [1] (mouse, plasma, sc, 10 nmol/kg), the exposure (AUC) was 0.116 µM·h, the Cmax worked out at 28.1 nM, the time to peak (Tmax) was found to be 60 min and the half-life is 114 min. For the same compound, the hypophosphatemic effects entry in data set [4] is “prolonged hypophosphatemic effects”. Moreover, the “duration of increase of blood Ca2+ levels” value in data set [2] is “at least 24 hours”.

In the case of “W1-Palm-PTH(1-34) (WVSEIQLMHNLGKHLNSMERVEWLRKKLQDVHNF[PEG2′]EYE-{K(Palm)-Glu-Tyr-Glu-NH2}) [Trp1-Palm-PTH(1-34)-2029]”, the “pEC50 (log molar concentration to attain 50% of maximum response observed with PTH(1-34)-2009)” value in the data set with PTH receptor (SaOS2/glosensor (SGS-72) cells, means ± SEM, n = 5) is 8.72 ± 0.15. Besides, in the data set with PTH receptor (SaOS2/glosensor (SGS-72) cells, read-out: EC50, concentration in nM shown below pEC50 (converted)), the EC50 was 1.91 nM. Moreover, the Max % with PTH receptor (means ± SEM) is given as 77 ± 8%.
